This is an account of results in publication PMC5318888, “SAMHD1 enhances nucleoside-analogue efficacy against HIV-1 in myeloid cells” (Scientific Reports, 2017).

Where “and” joins values, the source holds several entries; their conditions need not be identical. Identical values can stand only once.

Type in all cases: cell-based
Data set [1] is described as follows: Cytotoxicity, live cells by flow cytometry, THP-1 cells (PMA−/PMA+). Particulars: human. The method, then:
(§1) H9, Jurkat and undifferentiated U937 and THP-1 (PMA^−) cells (6 × 10^5 cells/mL) were treated with increasing concentrations of nucleoside analogues (0–200 μM; except CFB, 0–1.6 μM) and incubated at 37 °C in 5% CO2 for 48 h. Medium was then replaced and cells were further incubated for 72 h. Non-dividing U937 and THP-1 (PMA^+) cells (6 × 10^5 cells/mL) were differentiated by addition of 100 nM phorbol-12-myristate-13-acetate (PMA^+) for 48 h and then treated with increasing concentrations of nucleoside analogues as described above. The percentage of live cells was determined by flow cytometry using Live/Dead fixable blue-fluorescent dyes (Invitrogen) and a Fortessa X20 analyser (BD Biosciences). Data were analysed using the FlowJo software suite.
(§2) The cytotoxic concentration of nucleoside analogue that inhibits cell viability by 50% (CC50) and the effective concentration of nucleoside analogue that inhibits infection of cells by 50% (EC50) were calculated for each independent experiment by non-linear regression using GraphPad Prism v6.00 for Windows (GraphPad Software, San Diego, CA). Non-ambiguous values were subjected to a replicate test to calculate confidence intervals of 95% (95% CI). CC50 and EC50 values were determined for at least two independent experiments for each nucleoside analogue and a selectivity index (SI) also calculated, (SI = CC50/EC50). EC50 values for each replicate were used to perform an unpaired two-tailed t-test to determine significant differences between U937 cells expressing SAMHD1 wt or HD206-7AA mutant and THP-1 cells expressing Vpx or untransduced cells. P values of <0.005 were considered statistically significant.
(In general: A flow cytometer gives signals particle by particle.)

The subject of a further data set is THP-1 cells. The data set is described as above. Particulars: human, 48 h. The method, then:
as §1, §2

Data set [2] has as its system HIV-1-GFP. In words: microbe, parasite or virus in culture. As to the method: Cells were then infected with HIV-1-GFP by spinoculation at 800 × g for 90 min in the presence of 1 μg/mL polybrene, and further incubated at 37 °C in 5% CO2 for 72 h. […] Cells were then infected with HIV-1-GFP by spinoculation at 800 × g for 90 min in the presence of 1 μg/mL polybrene, and further incubated at 37 °C in 5% CO2 for 72 h. Non-dividing U937 and THP-1 (PMA^+) cells (6 × 10^5 cells/mL) were differentiated by addition of 100 nM PMA (PMA^+) for 48 h and treated with increasing concentrations of nucleoside analogues as described above. Cells were then infected with HIV-1-GFP in the presence of 1 μg/mL polybrene and further incubated at 37 °C in 5% CO2 for 72 h. The percentage of GFP^+cells was determined by one-colour flow cytometry using a Fortessa X20 analyser (BD Biosciences) and the data analysed using the FlowJo software suite.
Non-ambiguous values were subjected to a replicate test to calculate confidence intervals of 95% (95% CI). CC50 and EC50 values were determined for at least two independent experiments for each nucleoside analogue and a selectivity index (SI) also calculated, (SI = CC50/EC50). EC50 values for each replicate were used to perform an unpaired two-tailed t-test to determine significant differences between U937 cells expressing SAMHD1 wt or HD206-7AA mutant and THP-1 cells expressing Vpx or untransduced cells. P values of <0.005 were considered statistically significant.

Data set [3] is described as follows: Cytotoxicity, live cells by flow cytometry, U937 cells (PMA−/PMA+). The settings on record: human. As to the method: as §1, §2
In a further data set the test system is U937 cells. The description is as above. Particulars: human, 48 h. As to the method:
as §1, §2

For data set [4], the system named is HIV-1-GFP. In words: Anti-HIV-1 activity in THP-1 cells with or without Vpx transduction. As to the method:
Antiviral assays were further performed in monocytoid cells transduced with YFP-expressing VLPs containing WT SAMHD1, HD206-7AA or Vpx. Briefly, U937 cells (6 × 10^5 cells/mL) were transduced with WT SAMHD1-YFP or HD206-7AA-YFP VLPs by spinoculation at 800 × g for 90 min in the presence of 1 μg/mL polybrene. Similarly, THP-1 cells (6 × 10^5 cells/mL) were transduced with Vpx-YFP VLPs by spinoculation at 800 × g for 90 min in the presence of 1 μg/mL polybrene. Cells were incubated at 37 °C in 5% CO2 and after 72 h, PMA^+ cells (6 × 10^5 cells/mL) were treated with 100 nM PMA and PMA^− cells (7.5 × 10^4 cells/mL) were left untreated. Cells were then incubated at 37 °C in 5% CO2 for 48 h. Nucleoside analogues were added at increasing concentrations (0–200 μM; except CFB, 0–1.6 μM) and cells were further incubated for 48 h. PMA^− cells were then infected with HIV-1-GFP by spinoculation at 800 × g for 90 min in the presence of 1 μg/mL polybrene, PMA^+ cells were infected with HIV-1-GFP in the presence of 1 μg/mL polybrene only. Cells were incubated for 72 h at 37 °C in 5% CO2 and then analysed by two-colour flow cytometry using a Fortessa X20 analyser (BD Biosciences). Data were analysed using the FlowJo software suite.
as §2

Data set [5] in a line: Cytotoxicity, live cells by flow cytometry, Jurkat cells. Particulars: human. As to the method:
as §1, §2

The nature of data set [6]: Cytotoxicity, live cells by flow cytometry, H9 cells. The settings on record: human. As to the method: as §1, §2
Where [7] appears, read: Human immunodeficiency virus 1, H9, read-out: EC50 anti-HIV-1, H9 cells.
[8] abbreviates: Human immunodeficiency virus 1, Jurkat, read-out: EC50 anti-HIV-1, Jurkat cells.
The mark [9] stands for this setting: Human immunodeficiency virus 1, THP-1, read-out: EC50 [95% CI], THP1 PMA+, Vpx+.
Setting [10] is: Human immunodeficiency virus 1, THP-1, read-out: EC50 [95% CI], THP1 PMA+, Vpx−.
Setting [11] is: Human immunodeficiency virus 1, THP-1, read-out: EC50 [95% CI], THP1 PMA−, Vpx+.
Setting [12] is: Human immunodeficiency virus 1, THP-1, read-out: EC50 [95% CI], THP1 PMA−, Vpx−.

As for `Nc1nc2c(ncn2COCCO)c(=O)[nH]1` [ACV, Acycloguanosine], the CC50 at 48 h in data set [1], in data set [3], in data set [5] and in data set [6] was > 200 µM each time. For the same compound, the CC50 in the data set on THP-1 cells and in the data set with U937 cells was > 200 µM throughout. Further, the EC50 (commonly the concentration giving half of the maximal effect) with HIV-1-GFP [2] (setting [7]) is > 200 µM; in the data set on HIV-1-GFP [2] (setting [8]), > 200 µM; in the data set on HIV-1-GFP [4] (setting [9]), 29.6 µM; in the data set with HIV-1-GFP [4] (setting [10]), 1.08 µM; with HIV-1-GFP [4] (setting [11]) it was > 200 µM; in the data set on HIV-1-GFP [4] (setting [12]) it was > 200 µM. Also, the “Fold (EC50 Vpx+ vs Vpx−)” value in the data set on HIV-1-GFP [4] (THP1 PMA+) was 27 fold.
On to `Nc1nc(O)c2ncn(COC(CO)CO)c2n1` [GCV, 2′-Nor-2′-deoxyguanosine], for which the CC50 at 48 h in data set [1], in data set [3], in data set [5] and in data set [6] was > 200 µM each time. Besides, the CC50 with THP-1 cells and in the data set with U937 cells was > 200 µM throughout. In addition, the EC50 in the data set with HIV-1-GFP [2] (setting [7]) is > 200 µM; with HIV-1-GFP [2] (setting [8]) it was > 200 µM; with HIV-1-GFP [4] (setting [9]) it was > 200 µM; in the data set with HIV-1-GFP [4] (setting [10]), 0.632 µM; in the data set on HIV-1-GFP [4] (setting [11]) it was > 200 µM; in the data set on HIV-1-GFP [4] (setting [12]) it was > 200 µM. For the same compound, the “Fold (EC50 Vpx+ vs Vpx−)” value in the data set on HIV-1-GFP [4] (THP1 PMA+) is >316 fold.
Turning to `Cc1ccnc2c1NC(=O)c1cccnc1N2C1CC1` [NVP, Nevirapine], the CC50 (in general, the concentration giving 50% cytotoxicity) at 48 h in data set [1] (PMA-differentiated, non-dividing THP-1 cells (PMA+), THP-1 PMA+, read-out: CC50) was > 200 µM; in data set [1] (undifferentiated THP-1 cells (PMA−), THP-1 PMA−, read-out: CC50), > 200 µM; in data set [3] (PMA-differentiated, non-dividing U937 cells (PMA+), U937 PMA+, read-out: CC50), > 200 µM; in data set [3] (undifferentiated U937 cells (PMA−), U937 PMA−, read-out: CC50), > 200 µM; in data set [5] (Jurkat cells, read-out: CC50), > 200 µM; in data set [6] (H9 cells, read-out: CC50) it was > 200 µM. In addition, the “EC50 anti-HIV-1” value in the data set on HIV-1-GFP [2] (H9 cells) and with HIV-1-GFP [2] (Jurkat cells) was “nanomolar concentrations” each time. Also, the “SI, selectivity index CC50/EC50” value with HIV-1-GFP [2] (H9 cells) is > 1266. The concentration giving a half-maximal response (EC50) in the data set on HIV-1-GFP [2] (setting [7]) was 0.158 µM; with HIV-1-GFP [2] (setting [8]) it was 0.486 µM; in the data set with HIV-1-GFP [4] (setting [9]), 0.235 µM; in the data set on HIV-1-GFP [4] (setting [10]) it was 0.223 µM; in the data set on HIV-1-GFP [4] (setting [11]), 0.292 µM; in the data set on HIV-1-GFP [4] (setting [12]), 0.244 µM. Further, the “Fold (EC50 Vpx+ vs Vpx−)” value in the data set on HIV-1-GFP [4] (THP1 PMA+) and in the data set with HIV-1-GFP [4] (THP1 PMA−) was 1 fold in each case.
As to `Cc1nnc(C(=O)NC(C)(C)c2nc(C(=O)NCc3ccc(F)cc3)c(O)c(=O)n2C)o1` [RAL, Raltegravir], the CC50 at 48 h in data set [1] (THP-1 PMA+, read-out: CC50) is > 200 µM; in data set [1] (THP-1 PMA−, read-out: CC50) it was > 200 µM; in data set [3] (U937 PMA+, read-out: CC50) it was > 200 µM; in data set [3] (U937 PMA−, read-out: CC50) it was > 200 µM; in data set [5] (Jurkat cells, read-out: CC50) it was > 200 µM; in data set [6] (H9 cells, read-out: CC50), > 200 µM. Also, the “EC50 anti-HIV-1” value in the data set on HIV-1-GFP [2] (H9 cells) and with HIV-1-GFP [2] (Jurkat cells) was “nanomolar concentrations” in each case. In addition, in the data set on HIV-1-GFP [2] (H9 cells), the “SI, selectivity index CC50/EC50” value was > 100000. In addition, the EC50 with HIV-1-GFP [2] (setting [7]) came to 0.002 µM; in the data set on HIV-1-GFP [2] (setting [8]), 0.004 µM; in the data set on HIV-1-GFP [4] (setting [9]), 0.037 µM; in the data set on HIV-1-GFP [4] (setting [10]), 0.038 µM; in the data set on HIV-1-GFP [4] (setting [11]) it was 0.043 µM; with HIV-1-GFP [4] (setting [12]) it was 0.035 µM. Also, the “Fold (EC50 Vpx+ vs Vpx−)” value in the data set with HIV-1-GFP [4] (THP1 PMA+) and in the data set with HIV-1-GFP [4] (THP1 PMA−) was 1 fold throughout.
As to `Cc1cn([C@H]2C=C[C@@H](CO)O2)c(=O)[nH]c1=O` [d4T, 2′,3′-didehydro-2′,3′-dideoxythymidine], the CC50 at 48 h in data set [1], in data set [3], in data set [5] and in data set [6] was > 200 µM each time. In addition, the CC50 in the data set on THP-1 cells and with U937 cells was > 200 µM throughout. The “SI, selectivity index CC50/EC50” value is > 36 and > 30 with HIV-1-GFP [2] (H9 cells); > 30 with HIV-1-GFP [2] (Jurkat cells). Moreover, the concentration for a half-maximal effect (EC50) was < 10 µM in the data set with HIV-1-GFP [2] (setting [7]); < 10 µM in the data set on HIV-1-GFP [2] (setting [8]); 5.57 µM in the data set on HIV-1-GFP [2] (read-out: EC50 anti-HIV-1, H9 cells); 6.56 µM in the data set on HIV-1-GFP [2] (read-out: EC50 anti-HIV-1, Jurkat cells); 52.2 µM in the data set with HIV-1-GFP [4] (setting [9]); 1.49 µM in the data set on HIV-1-GFP [4] (setting [10]). Also, the half-maximal effective concentration (EC50) in the data set with HIV-1-GFP [4] (setting [11]) amounted to 13.3 µM; with HIV-1-GFP [4] (setting [12]) it was 4.39 µM. Besides, the “Fold (EC50 Vpx+ vs Vpx−)” value in the data set on HIV-1-GFP [4] (THP1 PMA+) worked out at 35 fold.
